According to the supplement of paper PMC11061612:

How the values were obtained:
C32 (Melanoma) [1] = assay: Bliss excess, mean over the matrix (fraction); higher = more synergy
Outline: (§1)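 Cell lines in DMEM/F12 or RPMI with 10% FBS were plated in 1536-well plates, held 24 hours at 37°C, 5% CO2, then given two-drug dose matrices for 72 hours (DMSO typically 0.2%). Viability was read by CellTiter-Glo 2.0 luminescence and scaled as inhibition from 0 (vehicle wells) to 1 (blank wells). Combination Emax is the second-highest inhibition in the matrix; Bliss excess is observed combination effect minus expected EA + EB − EA·EB, EA and EB being single-agent effects.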

[2] = tested on: SCC90 (Head and Neck Carcinoma); assay: combination Emax (second highest fraction inhibited in the dose matrix, 72 h); higher = more inhibition; extreme values may be limits of the assay
Outline: as §1

HT-144 (Melanoma) = assay: as above
Outline: as §1

[3] = tested on: OVKATE (Ovarian Carcinoma); assay: as above
Outline: as §1

[4] = tested on: BT-474 (Breast Carcinoma); assay: as above
Outline: as §1

C32 (Melanoma) [5] = assay: as above
Outline: as §1

[6] = tested on: Daudi (Burkitt's Lymphoma); assay: as above
Outline: as §1

[7] = tested on: NCI-H1648 (Lung Adenocarcinoma); assay: as above
Outline: as §1

[8] = tested on: MDA-MB-175-VII (Breast Carcinoma); assay: as above
Outline: as §1

[9] = tested on: SBC-5 (Small Cell Lung Carcinoma); assay: as above
Outline: as §1

[10] = tested on: SNU-1 (Gastric Carcinoma); assay: as above
Outline: as §1

[11] = tested on: NCI-H1435 (Non-Small Cell Lung Carcinoma); assay: as above
Outline: as §1

MG-63 (Osteosarcoma) = assay: as above
Outline: as §1

[12] = tested on: RS4-11 (B-Lymphoblastic Leukemia); assay: as above
Outline: as §1

[13] = tested on: HT-3 (Cervical Carcinoma); assay: as above
Outline: as §1

[14] = tested on: NCI-H1048 (Small Cell Lung Carcinoma); assay: as above
Outline: as §1

A375 (Melanoma) = assay: as above
Outline: as §1

[15] = tested on: HT-1197 (Bladder Carcinoma); assay: as above
Outline: as §1

[16] = tested on: NCI-H2170 (Squamous Cell Lung Carcinoma); assay: as above
Outline: as §1

[17] = tested on: SUP-HD1 (Hodgkin's Lymphoma); assay: as above
Outline: as §1
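For Bliss excess, mean over the matrix in this document: after 72 h of two-drug dosing.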

SMILES	Bliss excess (C32 (Melanoma) [1])	combination Emax [2]	combination Emax (HT-144 (Melanoma))	combination Emax [3]	combination Emax [4]	combination Emax (C32 (Melanoma) [5])	combination Emax [6]	combination Emax [7]	combination Emax [8]	combination Emax [9]	combination Emax [10]	combination Emax [11]	combination Emax (MG-63 (Osteosarcoma))	combination Emax [12]	combination Emax [13]	combination Emax [14]	combination Emax (A375 (Melanoma))	combination Emax [15]	combination Emax [16]	combination Emax [17]
Cc1cc2ncnn2cc1Nc1ncc2c(n1)n(C1CCOCC1)c(=O)n2C [AZD7648] + CCN(CCO)CCCOc1ccc2c(Nc3cc(CC(=O)Nc4cccc(F)c4)[nH]n3)ncnc2c1 [AZD2811] (first compound max 10 µM, 7x7, partner max 1 µM)	0.0271	0.452	0.327	0.27	0.237	0.279	0.508	0.547	0.323	0.39	0.239	0.288	0.39	0.968	0.231	0.706	0.492	0.291	0.696	0.434
Cc1cc2ncnn2cc1Nc1ncc2c(n1)n(C1CCOCC1)c(=O)n2C [AZD7648] + CN(C)CCCOc1ccc(-c2ccc3ncc4c(c3c2)n(C2CCOCC2)c(=O)n4C)cn1 [AZD0156] (first compound max 10 µM, 7x7, partner max 1 µM)	0.003	0.353	0.218	0.35	0.234	0.195	0.444	0.508	0.288	0.224	0.193	0.226	0.331	0.246	0.143	0.407	0.269	0.194	0.335	0.199
Cc1cc2ncnn2cc1Nc1ncc2c(n1)n(C1CCOCC1)c(=O)n2C [AZD7648] + C[C@@H]1COCCN1C2=NC(=NC(=C2)C3(CC3)[S@](=N)(=O)C)C4=C5C=CNC5=NC=C4 [AZD6738] (first compound max 10 µM, 7x7, partner max 10 µM)	-0.0021	0.325	0.753	0.377	0.24	0.649	0.826	0.779	0.341	0.481	0.788	0.217	0.503	0.871	0.536	0.508	0.687	0.419	0.657	0.751
Cc1cc2ncnn2cc1Nc1ncc2c(n1)n(C1CCOCC1)c(=O)n2C [AZD7648] + O=C(c1cc(Cc2n[nH]c(=O)c3ccccc23)ccc1F)N1CCN(C(=O)C2CC2)CC1 [Olaparib] (first compound max 10 µM, 7x7, partner max 10 µM)	-0.0375	0.188	0.232	0.148	0.117	0.0555	0.446	0.328	0.142	0.218	0.446	0.149	0.53	0.484	0.0499	0.412	0.234	0.216	0.411	0.465
Cc1nc(Nc2ncc(C(=O)Nc3c(C)cccc3Cl)s2)cc(N2CCN(CCO)CC2)n1 [Dasatinib] + CC(=O)Nc1cccc(-n2c(=O)n(C3CC3)c(=O)c3c(Nc4ccc(I)cc4F)n(C)c(=O)c(C)c32)c1 [Trametinib] (first compound max 2 µM, 7x7, partner max 1 µM)	-0.0198	0.846	0.703	0.484	0.0101	0.984	0.635	0.876	0.513	0.409	0.475	0.42	0.734	0.236	0.157	0.144	0.794	0.554	0.537	0.202
COc1cc2ncnc(Nc3ccc(F)c(Cl)c3)c2cc1OCCCN1CCOCC1 [Gefitinib] + CC(C)n1c(=O)n(C)c2cnc3cc(F)c(-c4ccc(OCCCN5CCCCC5)nc4)cc3c21 [AZD1390] (first compound max 10 µM, 7x7, partner max 0.3 µM)	-0.0368	0.699	0.314	0.155	0.485	0.114	0.392	0.646	0.93	0.0706	0.239	0.114	0.202	0.168	0.0187	0.0795	0.0854	0.0774	0.784	0.382
COc1cc2c(cc1OCCCCCOc1cc3c(cc1OC)C(=O)N1C=C(C)C[C@H]1C=N3)N=C[C@@H]1CC(C)=CN1C2=O [SG3199] + O=C(c1cc(Cc2n[nH]c(=O)c3ccccc23)ccc1F)N1CCN(C(=O)C2CC2)CC1 [Olaparib] (first compound max 0.001 µM, 7x7, partner max 10 µM)	-0.0373	0.173	0.232	0.0519	0.049	0.0494	0.245	0.129	0.0059	0.0814	0.353	0.107	0.198	0.591	0.0808	0.387	0.209	0.166	0.228	0.456
C[C@@H](c1ccc2nccn2c1)n1nnc2ncc(-c3cnn(C)c3)nc21 [Savolitinib] + CC1(C)CCC(CN2CCN(c3ccc(C(=O)NS(=O)(=O)c4ccc(NCC5CCOCC5)c([N+](=O)[O-])c4)c(Oc4cnc5[nH]ccc5c4)c3)CC2)=C(c2ccc(Cl)cc2)C1 [Venetoclax] (first compound max 1 µM, 7x7, partner max 1 µM)	-0.0338	0.381	0.117	0.155	0.0943	0.171	0.109	0.153	0.2	0.33	0.188	0.177	0.238	1	0.137	0.178	0.142	0.173	0.162	0.792
C[C@@H](c1ccc2nccn2c1)n1nnc2ncc(-c3cnn(C)c3)nc21 [Savolitinib] + Cc1c2c(nn1C)CSCc1cc(n(C)n1)CSc1cc(c3ccccc3c1)OCCCc1c(C(=O)O)n(C)c3c-2c(Cl)ccc13 [AZD5991] (first compound max 1 µM, 7x7, partner max 1 µM)	-0.0065	0.454	0.833	0.144	0.628	0.184	0.196	0.453	0.185	0.538	0.454	0.122	0.257	0.435	0.207	0.196	0.182	0.195	0.211	0.62
